Measured values as given in paper PMC10610038, “New Insights into the Enhancement of Adventitious Root Formation Using N,N′-Bis(2,3-methylenedioxyphenyl)urea” (Plants, 2023).

How the values were obtained:
[1] = biological target: T1, ZmCKX1 (cytokinin oxidase/dehydrogenase) (Zea mays, UniProt Q9T0N8); test: DCPIP reduction assay with purified ZmCKX1, trans-zeatin substrate; Lineweaver-Burk; Ki from IC50 ([…]) by Cheng-Prusoff; assay type: biochemical
T1 construct: gene CKX1

[2] = biological target: T1, ZmCKX1 (cytokinin oxidase/dehydrogenase); test: DCPIP reduction assay with purified ZmCKX1, trans-zeatin substrate; Ki from IC50 ([…]) by Cheng-Prusoff; assay type: biochemical

T1 sequence (Q9T0N8 19-534): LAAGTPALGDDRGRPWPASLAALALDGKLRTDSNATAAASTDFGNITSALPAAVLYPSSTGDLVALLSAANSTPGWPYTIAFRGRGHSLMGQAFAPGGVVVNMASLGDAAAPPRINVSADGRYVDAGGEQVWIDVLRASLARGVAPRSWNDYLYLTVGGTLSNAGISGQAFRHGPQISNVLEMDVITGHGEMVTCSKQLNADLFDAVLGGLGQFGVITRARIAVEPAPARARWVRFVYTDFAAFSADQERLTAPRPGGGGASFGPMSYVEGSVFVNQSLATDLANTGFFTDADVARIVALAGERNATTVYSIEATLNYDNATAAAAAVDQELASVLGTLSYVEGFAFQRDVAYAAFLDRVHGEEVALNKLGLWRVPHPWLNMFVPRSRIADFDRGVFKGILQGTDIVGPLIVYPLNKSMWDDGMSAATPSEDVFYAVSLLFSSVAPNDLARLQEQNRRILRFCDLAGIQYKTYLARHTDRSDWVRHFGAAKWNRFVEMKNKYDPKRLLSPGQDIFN

Row | Ki [1] | SMILES | Ki [2]
1 | 1600 nM | O=C(Nc1cccc2c1OCO2)Nc1cccc2c1OCO2 [2,3-MDPU, N,N′-bis-(2,3-methylenedioxyphenyl)urea] | 
2 |  | O=C(Nc1ccccc1)Nc1cnns1 [TDZ, N-phenyl-N′-(1,2,3-thiadiazol-5-yl)urea] | 1400 nM
